Results taken from patent US5792796A, “Methods for treating anxiety and panic” (Warner-Lambert Company, priority 1995, dated 1998).

Legend:
glycine/NMDA receptor = settings: previous radioligand binding studies; cited from earlier work
[1] = in vivo; cited from earlier work
[2] = in vivo; cited from earlier work; remark: listed apart in the source
rats = assay: Rat conflict test
Method: Male Hooded Lister rats (200-250 g) were obtained from Interfauna (Huntingdon, UK) and male TO mice (20-25 g) were obtained from Bantin and Kingman (Hull, UK). Both rodent species were housed in groups of six. Ten Common Marmosets (Callithrix Jacchus) weighing between 280 and 360 g, bred at Manchester University Medical School (Manchester, UK) were housed in pairs. All animals were housed under a 12-hour light/dark cycle (lights on at 07.00 hour) and with food and water ad libitum.
Rats were trained to press levers for food reward in operant chambers. The schedule consisted of alternations of four 4-minute unpunished periods on variable interval of 30 seconds signalled by chamber lights on and three 3-minute punished periods on fixed ratio 5 (by footshock concomitant to food delivery) signalled by chamber lights off. The degree of footshock was adjusted for each rat to obtain approximately 80% to 90% suppression of responding in comparison with unpunished responding. Rats received saline vehicle on training days.
The results are expressed as mean percent increase or decrease of lever pressing (vertical bars represent ±SEM) of at least 5 animals per group on test day compared with mean performances obtained the 2 previous days following vehicle administration.
*p <0.05, **p <0.01 (paired Student t-test).

SMILES | binding to the glycine/NMDA receptor (glycine/NMDA receptor) | penetration of the blood-brain barrier [1] | metabolism in the body [2] | reduction in lever pressing in the unpunished period (indicating sedation/ataxia) (rats; 100 mg/kg (highest dose tested)) [%] | increase in lever pressing in the punished period (rats; 3 mg/kg (minimum effective dose), 40 minutes before test) [%] | maximal effect, increase in lever pressing in the punished period (rats; 30 mg/kg, 40 minutes before test) [%] | minimal effective dose (rats; Rattus norvegicus, 40 min, read-out: minimum effective dose (MED) for increased lever pressing in the punished period) [mg/kg] | unpunished responding (rats; any of the doses tested (1-100 mg/kg))
NCC1(CC(=O)O)CCCCC1 [gabapentin, 1-(aminomethyl)cyclohexaneacetic acid] | does not bind | readily penetrates | not metabolized | 37.4 |  |  |  | 
CNC1=Nc2ccc(Cl)cc2C(c2ccccc2)=[N+]([O-])C1 [chlordiazepoxide] |  |  |  |  | 128.4 | 330.0 | 3 | not reduced
